Drawing on the METLIN SMRT retention time set (Domingo-Almenara et al. 2019), this text covers RP-LC retention time for 59 compounds.

A short description of the data set: gradient 5% acetonitrile 3 min, to 50% in 2 min, to 85% in 15 min, held 3 min, 100 µL/min. The settings on record: column: Zorbax Extend-C18 2.1 x 50 mm; eluents: water / acetonitrile, 0.1% formic acid. An outline of the steps:
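The mobile phases were water and acetonitrile, each with 0.1% formic acid, pumped at 100 μL/min through a Zorbax Extend-C18 column (2.1 × 50 mm, 1.8 μm). Pure standards were injected as mixtures of ~100 molecules and detected by a quadrupole time-of-flight mass spectrometer in positive and negative ionization mode. Retention time came from computationally picked adduct peaks, each inspected by hand.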
The compound `COc1ccc(-c2noc(-c3nc(C(C)C)no3)n2)cc1` had an RP-LC retention time of 1120 s. Next, `O=C1[C@@H]2[C@H]3CC[C@H](C3)[C@@H]2C(=O)N1C[C@@H]1CCCC[C@H]1CN1CCN(c2nsc3ccccc23)CC1`: 884 s; `O=C(NC1CCCCCC1)c1nnc(-c2ccc(S(=O)(=O)N3CCOCC3)cc2)o1`: 917 s; `CC(=O)N1CCc2cc(S(=O)(=O)CCC(=O)N3CCC(CCOc4ccccc4)C3)ccc21` (centres undefined): 822 s. Next, `COc1ccc(C2(C(=O)N3CCc4nn(C)c(=O)n4CC3)CC2)cc1`: 657 s. In turn, `Cn1cc(C2=CCN(CC(=O)N3CCN(c4ccc(F)cc4)CC3)CC2)cn1` showed an RP-LC retention time of 612 s.

`CN(Cc1ccccc1)C(=O)c1cn2ccncc2n1` returned an RP-LC retention time of 678 s. As to `Cc1cc(C)cc(N2C(=O)CN(C3CCCC3)[C@H]3CS(=O)(=O)C[C@H]32)c1`, the RP-LC retention time worked out at 790 s. In the case of `CCCCN1CCN(C(=O)C2=NN(c3ccc(C)cc3)c3ncccc3S2(=O)=O)CC1`, the RP-LC retention time amounted to 685 s.

With `COC(=O)c1c(C)[nH]c(C(=O)N2CCCC(C(=O)N3CCN(c4ccccc4)CC3)C2)c1C` (centres undefined), the RP-LC retention time came to 790 s. The compound `O=C(NCCCN1CCOCC1)c1ccc(CS(=O)Cc2cccc(Cl)c2)o1` (centres undefined) had an RP-LC retention time of 610 s.

The compound `CCCN(C)c1nccn2c(=O)n(CC(=O)Nc3ccc(C)cc3F)nc12` displayed an RP-LC retention time of 719 s. The result for `Cc1nc(OCC(=O)N2CCc3ccccc32)c2c(-c3ccccc3)noc2n1` reads 1100 s. `Cc1ccc(N2C(=O)CN(S(C)(=O)=O)CC2(C)C(=O)NCc2ccccc2)cc1C` (centres undefined) gave an RP-LC retention time of 758 s. Next, `Cc1ccc(C)c(C(=O)NCC(C)(O)c2ccccc2)c1` (centres undefined): 759 s; `Cc1cccc(CC(=O)NCCCN2CCN(c3ccccc3)CC2)c1`: 601 s. `O=C(Nc1nnc(SCc2nnc(-c3cccc(F)c3)o2)s1)c1ccccc1` yielded an RP-LC retention time of 887 s.

`COc1ccc2[nH]c(=O)c(CCC(=O)N(C)CCc3ccccn3)cc2c1` had an RP-LC retention time of 578 s. In turn, `COc1ccc(-c2cc(N3CCC(NC(=O)c4ccc(Br)o4)CC3)n[nH]2)cc1` displayed an RP-LC retention time of 735 s. On to `COc1ccc(C(C)NC(=O)c2c(C)sc3ccn(CC(C)C)c(=O)c23)cc1` (centres undefined), for which the RP-LC retention time worked out at 962 s. `CCc1ccc(S(=O)(=O)N2CCC(C(=O)NCc3csc(-c4cccs4)n3)CC2)cc1` returned an RP-LC retention time of 987 s. `CCCn1ccc2sc(C)c(C(=O)NCc3cccc(OCC)c3)c2c1=O`: the RP-LC retention time amounted to 939 s. The result for `CCOC(=O)c1c(C)oc2nc(C)nc(NCCCN3CCN(c4ccccc4OC)CC3)c12` reads 596 s; that for `COc1ccc(Cl)cc1NC(=O)c1c(OC)cc(=O)n2c1CCCC2`, 801 s; that for `Cn1cc2c3c(cccc31)CN(C(=O)c1cc(F)ccc1Cl)CC2`, 938 s. The result for `COc1cc(NC(=O)N2CC(C)Oc3ccccc32)cc(OC)c1OC` (centres undefined) reads 862 s; that for `CCc1cccc(NC(=O)Cn2c(=O)c(CCC(=O)NCC(C)C)nc3ccccc32)c1`, 880 s; that for `Cc1nnc2n1CCC(N(C)C(=O)c1cc(C3CC3)[nH]n1)CC2` (centres undefined), 530 s. Next, `CCOC(=O)CN1N=C(C(=O)N2CCC(C)CC2)S(=O)(=O)c2ccccc21`: 888 s. `CSc1cccc2sc(NC(=O)C3CCN(S(C)(=O)=O)CC3)nc12` gave an RP-LC retention time of 779 s. Next, `Cc1cc(-c2c(C)sc(C)c2S(=O)(=O)N2CC=C(c3ccccc3)CC2)n[nH]1`: 1040 s. On to `COc1ccc(S(=O)(=O)N2CCCC(C(=O)N3CCOCC3)C2)cc1Cl` (centres undefined), for which the RP-LC retention time stood at 766 s. Turning to `O=C(NCCc1ccccc1)N1CCCn2nc(-c3cccs3)cc2C1`, the RP-LC retention time amounted to 805 s.

For the compound `CCC(C)NC(=O)C1CCN(CCc2cn(C)c3ncccc23)CC1` (centres undefined), the RP-LC retention time was determined as 574 s.

In turn, `COC(=O)c1cc(-c2c[nH]cc2C(=O)OCc2ccccc2)cn1S(=O)(=O)c1ccc(C)cc1` displayed an RP-LC retention time of 1060 s. Next, `Cc1ccc(NC(=O)N2CCC3(CC2)NC(=O)c2ccccc2O3)c(C)c1`: 750 s. The result for `CCCNc1cc(N2CCCC(CCC(=O)NCc3cccc(F)c3)C2)ncn1` (centres undefined) reads 696 s; that for `Cc1ccc(Cn2c(=O)n(CCNC(=O)c3ccc4c(c3)OCO4)c3ncccc32)cc1`, 824 s.

In the case of `CC(C)Cc1csc(-c2csc(S(=O)(=O)NCc3cccs3)c2)n1`, the RP-LC retention time is 1150 s. Turning to `CC1=C(C(=O)N(CC(=O)NCc2ccccc2)c2ccc(Cl)cc2)SCCO1`, the RP-LC retention time worked out at 934 s. Regarding `CCOc1nc2ccccc2nc1N1CCCC(C(=O)Nc2ccccc2CC)C1` (centres undefined), the RP-LC retention time is 1120 s. The result for `CNC(=O)N1CCCN(S(C)(=O)=O)C(c2ccccc2)CC(=O)NCC1` (centres undefined) reads 616 s; that for `Cc1ccccc1CNC(=O)c1ncn2c1C(=O)N(C1CC1)C(C)(C(=O)NCc1ccc(F)cc1)C2` (centres undefined), 798 s; that for `O=C(c1ccc(-c2cccs2)nc1)N1CCN(C2CCCCC2)CC1`, 711 s.

As for `CNC(=O)c1cnn(-c2nc(N)c3ncn([C@@H]4O[C@H](CO)C(O)C4O)c3n2)c1` (some centres undefined), the RP-LC retention time was 586 s.

`O=c1n(Cc2cccc(C(F)(F)F)c2)nc2c(S(=O)(=O)N3CCOCC3)cccn12`: the RP-LC retention time was 847 s.

`Cc1c(C(=O)NCC2CCCO2)cnn1-c1cc(-c2nc(C3CC3)no2)ccn1` (centres undefined) had an RP-LC retention time of 837 s. The result for `CCC(C)NC(=O)Cc1cccn1-c1ccc(F)cc1` (centres undefined) reads 856 s; that for `Cc1nc(-c2ccc(C(=O)N3CCCc4ccccc43)cc2)no1`, 929 s; that for `O=C(c1ccco1)N1CCN(C(=O)C2CCCN(c3ncnc4c3nc3n4CCCCC3)C2)CC1` (centres undefined), 657 s. `CCN1CCN(C(=O)C2CCN(c3nc4ccc(-c5ccsc5)nc4s3)CC2)CC1` displayed an RP-LC retention time of 666 s. Consider `COc1ccc(CC(=O)N2CCC3(C2)C(=O)Nc2ccccc23)cc1Cl` (centres undefined), for which the RP-LC retention time worked out at 761 s.

As for `CCSc1nc(NC(C)C)c2cnn(CCNC(=O)Cc3c(C)noc3C)c2n1`, the RP-LC retention time was 716 s. Next, `COc1ccc(S(=O)(=O)CCC(=O)NC(C(=O)N2CCCc3ccccc32)c2ccccc2)cc1` (centres undefined): 928 s; `CCN(CC)c1cc(C)nc2nc(CN3CCN(c4ccc(OC)cc4)CC3)nn12`: 571 s; `CN(C)C(=O)c1ccc2c(c1)nnn2CCNC(=O)Nc1ccccc1Br`: 675 s. The result for `CC(C)Cn1cc(CCNC(=O)Nc2ccc(F)cc2)c2cccnc21` reads 812 s; that for `CCOC(=O)c1cn(Cc2ccccc2)c2ccccc2c1=O`, 769 s.

In the case of `CCN1CCn2cc(S(=O)(=O)Nc3cc(F)ccc3F)cc2C1=O`, the RP-LC retention time was 715 s.
